Values after ≈ are worked out from the molar mass of the structure shown.
Columns and labels:
Assay type in all cases: functional
Staphylococcus aureus = assay: In vitro antibacterial activity against Staphylococcus aureus X1.1
[1] = tested on: Staphylococcus epidermidis; assay: In vitro antibacterial activity against Staphylococcus epidermidis 222
Escherichia coli = assay: In vitro antibacterial activity against Escherichia coli EC14
Haemophilus influenzae = assay: In vitro antibacterial activity against Haemophilus influenza C.L
Klebsiella aerogenes = assay: In vitro antibacterial activity against Enterobacter aerogenes C32
Streptococcus pneumoniae = assay: In vitro antibacterial activity against Streptococcus pneumoniae PARK
Pseudomonas aeruginosa = assay: In vitro antibacterial activity against Pseudomonas PS72
Klebsiella pneumoniae = assay: In vitro antibacterial activity against Klebsiella X26

| MIC (Staphylococcus aureus) [µg/mL] | MIC [1] [µg/mL] | MIC (Escherichia coli) [µg/mL] | MIC (Haemophilus influenzae) [µg/mL] | MIC (Klebsiella aerogenes) [µg/mL] | MIC (Streptococcus pneumoniae) [µg/mL] | MIC (Pseudomonas aeruginosa) [µg/mL] | MIC (Klebsiella pneumoniae) [µg/mL] | SMILES |
| --- | --- | --- | --- | --- | --- | --- | --- | --- |
| 32 (≈ 76.7 µM) | 16 (≈ 38.3 µM) | 0.125 (≈ 0.299 µM) | 0.125 (≈ 0.299 µM) | 0.5 (≈ 1.2 µM) | 0.125 (≈ 0.299 µM) | > 128 | 0.06 (≈ 0.144 µM) | C=CCO/N=C(/C(=O)N[C@H]1CN2CC(C#N)=C(C(=O)O)N2C1=O)c1csc(N)n1 |
| 16 (≈ 31.7 µM) | 32 (≈ 63.4 µM) | 0.125 (≈ 0.248 µM) | 0.125 (≈ 0.248 µM) | 0.25 (≈ 0.496 µM) | 0.125 (≈ 0.248 µM) | > 128 | 0.03 (≈ 0.0595 µM) | CCCS(=O)(=O)C1=C(C(=O)O)N2C(=O)[C@@H](NC(=O)/C(=N/OCCF)c3csc(N)n3)CN2C1 |
| 4 (≈ 8.02 µM) | 8 (≈ 16 µM) | 0.5 (≈ 1 µM) | 0.25 (≈ 0.501 µM) | 2 (≈ 4.01 µM) | 0.06 (≈ 0.12 µM) | > 128 | 0.06 (≈ 0.12 µM) | CC(C)=CCO/N=C(/C(=O)N[C@H]1CN2CC(S(C)(=O)=O)=C(C(=O)O)N2C1=O)c1csc(N)n1 |
| 16 (≈ 32.1 µM) | 32 (≈ 64.2 µM) | 0.06 (≈ 0.12 µM) | 0.125 (≈ 0.251 µM) | 0.25 (≈ 0.501 µM) | 0.06 (≈ 0.12 µM) | > 128 | 0.015 (≈ 0.0301 µM) | CCS(=O)(=O)C1=C(C(=O)O)N2C(=O)[C@@H](NC(=O)/C(=N/OCC3CC3)c3csc(N)n3)CN2C1 |
| 16 (≈ 32.1 µM) | 32 (≈ 64.2 µM) | 0.5 (≈ 1 µM) | 0.25 (≈ 0.501 µM) | 0.5 (≈ 1 µM) | 0.06 (≈ 0.12 µM) | > 128 | 0.06 (≈ 0.12 µM) | C=CCO/N=C(/C(=O)N[C@H]1CN2CC(S(=O)(=O)CCC)=C(C(=O)O)N2C1=O)c1csc(N)n1 |
| 16 (≈ 36.9 µM) | 16 (≈ 36.9 µM) | 1 (≈ 2.31 µM) | 0.125 (≈ 0.288 µM) | 2 (≈ 4.61 µM) | 0.125 (≈ 0.288 µM) | > 128 | 0.06 (≈ 0.138 µM) | CCCCO/N=C(/C(=O)N[C@H]1CN2CC(C#N)=C(C(=O)O)N2C1=O)c1csc(N)n1 |
| 32 (≈ 61.4 µM) | 32 (≈ 61.4 µM) | 1 (≈ 1.92 µM) | 1 (≈ 1.92 µM) | 2 (≈ 3.84 µM) | 0.25 (≈ 0.48 µM) | > 128 | 0.125 (≈ 0.24 µM) | CS(=O)(=O)C1=C(C(=O)O)N2C(=O)[C@@H](NC(=O)/C(=N/OCCCCCl)c3csc(N)n3)CN2C1 |
| 8 (≈ 14.1 µM) | 16 (≈ 28.1 µM) | 2 (≈ 3.51 µM) | 0.5 (≈ 0.879 µM) | 4 (≈ 7.03 µM) | 0.06 (≈ 0.105 µM) | > 128 | 0.03 (≈ 0.0527 µM) | Nc1nc(/C(=N\OCCCl)C(=O)N[C@H]2CN3CC(S(=O)(=O)Cc4ccccc4)=C(C(=O)O)N3C2=O)cs1 |

Reference: ChEMBL document CHEMBL1126865, “Structure-activity relationship within a series of pyrazolidinone antibacterial agents. 2. Effect of side-chain modification on in vitro activity and pharmacokinetic parameters” (J Med Chem, 1993)
